Here are results for 29 molecules from PMC4002258 (Biochimica et biophysica acta, 2013).

Where two headings read alike, the source gives them in different places. Marks after values point to notes of the source that are not given here.

Assay [1] addresses T1, human recombinant core 2 β1,6-GlcNAc-transferase (C2GnT1) (Homo sapiens, UniProt Q02742).
T1 sequence (Q02742 33-428 limits assumed): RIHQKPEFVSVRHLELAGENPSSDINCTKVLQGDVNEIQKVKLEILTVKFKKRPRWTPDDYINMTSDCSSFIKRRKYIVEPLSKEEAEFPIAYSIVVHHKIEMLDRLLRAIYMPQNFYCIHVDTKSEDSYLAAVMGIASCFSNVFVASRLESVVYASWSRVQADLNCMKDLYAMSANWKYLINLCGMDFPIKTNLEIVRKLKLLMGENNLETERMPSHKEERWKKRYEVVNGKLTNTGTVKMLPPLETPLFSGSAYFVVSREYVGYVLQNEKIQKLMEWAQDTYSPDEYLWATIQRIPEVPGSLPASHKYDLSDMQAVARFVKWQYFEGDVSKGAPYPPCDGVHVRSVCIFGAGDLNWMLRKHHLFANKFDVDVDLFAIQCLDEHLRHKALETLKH
Nature of the assay: C2GnT1 glycosyltransferase assay. It counts as biochemical. Conditions: for C2GnT1 activity (%): acceptor substrate 0.5 mM, 0.5 mM Galβ1–3GalNAcα-pnp set to 100%.

Assay [2] has as its target T2, human recombinant core 2/4 β1,6-GlcNAc-transferase (C2GnT2) (Homo sapiens, UniProt O95395).
T2 sequence (O95395 27-438): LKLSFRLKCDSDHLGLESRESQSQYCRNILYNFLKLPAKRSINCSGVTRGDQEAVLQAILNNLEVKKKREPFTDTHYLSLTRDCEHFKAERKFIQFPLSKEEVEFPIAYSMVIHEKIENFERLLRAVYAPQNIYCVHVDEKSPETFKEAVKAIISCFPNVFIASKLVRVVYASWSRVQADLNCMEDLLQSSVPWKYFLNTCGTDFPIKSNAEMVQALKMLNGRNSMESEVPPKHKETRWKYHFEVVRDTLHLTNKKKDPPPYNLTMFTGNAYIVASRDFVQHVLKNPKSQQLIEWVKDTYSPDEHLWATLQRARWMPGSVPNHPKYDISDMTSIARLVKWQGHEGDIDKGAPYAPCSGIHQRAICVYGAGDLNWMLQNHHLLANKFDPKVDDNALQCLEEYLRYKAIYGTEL
It counts as biochemical. The note with it: for C2GnT2 activity (%): acceptor substrate 0.5 mM, 0.5 mM Galβ1–3GalNAcα-pnp set to 100%.

For the molecule `CC(=O)N[C@H]1[C@@H](OCc2ccccc2)O[C@H](CO)[C@H](O)[C@@H]1O[C@@H]1O[C@H](CO)[C@H](O)C[C@H]1O` [3-Deoxy-Galβ1–3GalNAcα-Bn], in assay [1], the “C2GnT1 activity (%)” value was determined as 90%. For the same molecule, the “C2GnT2 activity (%)” value in assay [2] was determined as 52%.

Turning to `CO[C@H]1[C@@H](O)[C@@H](CO)O[C@@H](O[C@H]2[C@@H](O)[C@@H](CO)O[C@H](OCc3ccccc3)[C@@H]2NC(C)=O)[C@@H]1O` [3-O-Methyl-Galβ1–3GalNAcα-Bn], the “C2GnT1 activity (%)” value in assay [1] turned out to be 104%. Besides, the “C2GnT2 activity (%)” value in assay [2] is reported as 41%.

In the case of `CC(=O)N[C@H]1[C@@H](OCc2ccccc2)O[C@H](CO)[C@H](O)[C@@H]1O[C@@H]1O[C@H](CO)C[C@H](O)[C@H]1O` [4-Deoxy-Galβ1–3GalNAcα-Bn], the “C2GnT1 activity (%)” value in assay [1] is below 1%. In assay [2], the “C2GnT2 activity (%)” value is recorded as below 1%.

As to `CC(=O)N[C@H]1[C@@H](OCc2ccccc2)O[C@H](CO)[C@H](O)[C@@H]1O[C@@H]1O[C@H](CO)[C@H](F)[C@H](O)[C@H]1O` [4-F-4-Deoxy-Galβ1–3GalNAcα-Bn], in assay [1], the “C2GnT1 activity (%)” value is given as below 1%. The “C2GnT2 activity (%)” value in assay [2] was below 1%.

`CC(=O)N[C@H]1[C@@H](OCc2ccccc2)O[C@H](CO)[C@H](O)[C@@H]1O[C@@H]1O[C@H](C)[C@H](O)[C@H](O)[C@H]1O` [6-Deoxy-Galβ1–3GalNAcαBn]: the “C2GnT1 activity (%)” value in assay [1] was below 1%. The “C2GnT2 activity (%)” value in assay [2] was below 1%.

In the case of `CO[C@H]1O[C@H](CO)[C@H](O)[C@H](O[C@@H]2O[C@H](CO)[C@H](O)[C@H](O)[C@H]2O[C@@H]2O[C@@H](C)[C@@H](O)[C@@H](O)[C@@H]2O)[C@H]1NC(C)=O` [Fucα1–2Galβ1–3GalNAcα-methyl], the “C2GnT1 activity (%)” value in assay [1] is below 1%. For the same molecule, the “C2GnT2 activity (%)” value in assay [2] is given as below 1%.

As to `CC(=O)N[C@H]1[C@@H](OCc2ccccc2)O[C@H](CO)C[C@@H]1O[C@@H]1O[C@H](CO)[C@H](O)[C@H](O)[C@H]1O` [Galβ1–3(4-deoxy)GalNAcα-Bn], in assay [1], the “C2GnT1 activity (%)” value is recorded as below 1%. Also, in assay [2], the “C2GnT2 activity (%)” value is given as below 1%.

For `COC[C@H]1O[C@H](OCc2ccccc2)[C@H](NC(C)=O)[C@@H](O[C@@H]2O[C@H](CO)[C@H](O)[C@H](O)[C@H]2O)[C@H]1O` [Galβ1–3(6-O-methyl)GalNAcα-Bn], the “C2GnT1 activity (%)” value in assay [1] was below 1%. For the same molecule, the “C2GnT2 activity (%)” value in assay [2] was below 1%.

In the case of `CC(=O)N[C@H]1[C@@H](OCc2ccccc2)O[C@H](CO)[C@H](O)[C@@H]1O[C@@H]1O[C@H](CO)[C@H](O)[C@H](O)[C@H]1O` [Galβ1–3GalNAcα-Bn], the “C2GnT1 activity (%)” value in assay [1] is given as 64%. In addition, the “C2GnT2 activity (%)” value in assay [2] is recorded as 35%.

Turning to `CC(=O)N[C@H]1[C@@H](Oc2ccccc2[N+](=O)[O-])O[C@H](CO)[C@H](O)[C@@H]1O[C@@H]1O[C@H](CO)[C@H](O)[C@H](O)[C@H]1O` [Galβ1–3GalNAcα-onp], the “C2GnT1 activity (%)” value in assay [1] amounted to 79%. The “C2GnT2 activity (%)” value in assay [2] is recorded as 100%.

As for `C=C(C)C1CC=C(CO[C@H]2O[C@H](CO)[C@H](O)[C@H](O[C@@H]3O[C@H](CO)[C@H](O)[C@H](O)[C@H]3O)[C@H]2NC(C)=O)CC1` (stereo partly drawn) [Galβ1–3GalNAcα-perillyl], in assay [1], the “C2GnT1 activity (%)” value came to 135%. The “C2GnT2 activity (%)” value in assay [2] amounted to 86%.

As for `CC(=O)N[C@H]1[C@@H](Oc2ccc([N+](=O)[O-])cc2)O[C@H](CO)[C@H](O)[C@@H]1O[C@@H]1O[C@H](CO)[C@H](O)[C@H](O)[C@H]1O` [Galβ1–3GalNAcα-pnp, reference compound], in assay [1], the “C2GnT1 activity (%)” value is reported as 100 ^a %. Besides, the Vmax in assay [2] (C2GnT2, acceptor substrate) came to 1.5 µmol/h/mg. Also, the “C2GnT2 activity (%)” value in assay [2] is recorded as 100 ^b %.

On to `CC(=O)N[C@H]1[C@@H](OCc2ccccc2)O[C@H](CO)[C@@H](O)[C@@H]1O[C@@H]1O[C@H](CO)[C@H](O)[C@H](O)[C@H]1O` [Galβ1–3GlcNAcα-Bn], for which, in assay [1], the “C2GnT1 activity (%)” value is recorded as below 1%.

On to `CC(=O)N[C@H]1[C@@H](OCc2ccccc2)O[C@H](CO)[C@H](O)[C@@H]1O[C@@H]1O[C@H](CO)[C@H](O)[C@H](O[C@@H]2O[C@H](CO)[C@@H](O)[C@H](O[C@@H]3O[C@H](CO)[C@H](O)[C@H](O)[C@H]3O)[C@H]2NC(C)=O)[C@H]1O` [Galβ1–3GlcNAcβ1–3Galβ1–3GalNAcα-Bn], for which the “C2GnT1 activity (%)” value in assay [1] is recorded as below 1%. Moreover, the “C2GnT2 activity (%)” value in assay [2] is reported as below 1%.

`CO[C@@H]1O[C@H](CO)[C@H](O)[C@H](O[C@@H]2O[C@H](CO)[C@@H](O)[C@H](O)[C@H]2NC(C)=O)[C@H]1O` [GlcNAcβ1–3-Galβ-methyl]: the “C2GnT1 activity (%)” value in assay [1] is reported as below 1%. Besides, the “C2GnT2 activity (%)” value in assay [2] is below 1%.

As for `C=CCO[C@H]1O[C@H](CO)[C@H](O)[C@H](O[C@@H]2O[C@H](CO)[C@@H](O)[C@H](O)[C@H]2NC(C)=O)[C@H]1NC(C)=O` [GlcNAcβ1–3GalNAcα-allyl], in assay [1], the “C2GnT1 activity (%)” value was below 1%. The “C2GnT2 activity (%)” value in assay [2] is reported as 27%.

`CC(=O)N[C@H]1[C@H](O[C@H]2[C@@H](O)[C@@H](CO)O[C@H](Oc3ccc([N+](=O)[O-])cc3)[C@@H]2NC(C)=O)O[C@H](CO)[C@@H](O)[C@@H]1O` [GlcNAcβ1–3GalNAcα-pnp, reference compound]: in assay [1], the “C2GnT1 activity (%)” value was below 1%. Further, in assay [2] (C2GnT2, acceptor substrate), the Vmax turned out to be 1.0 µmol/h/mg. Moreover, in assay [2], the “C2GnT2 activity (%)” value stood at 32%.

As for `CC(=O)N[C@H]1[C@H](OC[C@H]2O[C@H](OCc3ccccc3)[C@H](NC(C)=O)[C@@H](O[C@@H]3O[C@H](CO)[C@@H](O)[C@H](O)[C@H]3NC(C)=O)[C@H]2O)O[C@H](CO)[C@@H](O)[C@@H]1O` [GlcNAcβ1–6(GlcNAcβ1–3)GalNAcα-Bn], in assay [1], the “C2GnT1 activity (%)” value is reported as below 1%. For the same molecule, the “C2GnT2 activity (%)” value in assay [2] was below 1%.

As to `CC(=O)N[C@H]1[C@@H](OP(=O)(O)OP(=O)(O)OC[C@H]2O[C@@H](n3ccc(=O)[nH]c3=O)[C@H](O)[C@@H]2O)O[C@H](CO)[C@@H](O)[C@@H]1O` [UDP-GlcNAc, reference compound], the Vmax in assay [1] (C2GnT1, donor substrate, using 5 mM Galβ1–3GalNAcα-pnp) worked out at 0.1 µmol/h/mg; in assay [2] (C2GnT2, donor substrate, using 5 mM Galβ1–3GalNAcα-pnp), 1.7 µmol/h/mg; in assay [2] (C2GnT2, donor substrate, using 5 mM GlcNAcβ1–3GalNAcα-pnp), 0.8 µmol/h/mg.

On to (Galβ1–3GalNAcα)TAGV, for which, in assay [1], the “C2GnT1 activity (%)” value stood at 92%. Further, the “C2GnT2 activity (%)” value in assay [2] is recorded as below 1%.

For the molecule “AHGVT-(Galβ1–3GalNAcα)SAPDTRPAPGS- (Galβ1–3GalNAcα)SAPPA”, in assay [1], the “C2GnT1 activity (%)” value was found to be 9%. Further, the “C2GnT2 activity (%)” value in assay [2] is below 1%.

On to “AHGVT-(Galβ1–3GalNAcα)SAPDTRPAPGSTAP- (Galβ1–3GalNAcα)TA”, for which the “C2GnT1 activity (%)” value in assay [1] worked out at 18%. Moreover, in assay [2], the “C2GnT2 activity (%)” value is given as below 1%.

AHGVT-(Galβ1–3GalNAcα)SAPDTRPAPGSTAPNA: the “C2GnT1 activity (%)” value in assay [1] stood at 9%. For the same molecule, the “C2GnT2 activity (%)” value in assay [2] is recorded as below 1%.

For AHGVT-(Galβ1–3GalNAcα)SAPDTRPAPGSTAPTA, the “C2GnT1 activity (%)” value in assay [1] is 9%. The “C2GnT2 activity (%)” value in assay [2] is below 1%.

Consider AHGVT-(Galβ1–3GalNAcα)SAPESRPAPGSTAPNA, for which the “C2GnT1 activity (%)” value in assay [1] stood at 9%. For the same molecule, the “C2GnT2 activity (%)” value in assay [2] is on record as below 1%.

In the case of AHGVT-(Galβ1–3GalNAcα)SAPETRPAPGSTAPTA, the “C2GnT1 activity (%)” value in assay [1] turned out to be 11%. The “C2GnT2 activity (%)” value in assay [2] is given as below 1%.

As to Ac-G-(Galβ1–3GalNAcα)TTTPIST-NH2, the “C2GnT1 activity (%)” value in assay [1] is listed as 12%. The “C2GnT2 activity (%)” value in assay [2] is 8%.

Regarding Ac-GT-(Galβ1–3GalNAcα)TTPIST-NH2, in assay [1], the “C2GnT1 activity (%)” value worked out at 13%. In addition, the “C2GnT2 activity (%)” value in assay [2] is on record as 5%.

Consider Ac-GTT-(Galβ1–3GalNAcα)TPIST-NH2, for which the “C2GnT1 activity (%)” value in assay [1] was 14%. Further, in assay [2], the “C2GnT2 activity (%)” value is given as below 1%.
